We go through 13 compounds from US20140106387A1, “METHOD FOR CONTROLLING NAD(P)/NAD(P)H RATIO BY OXIDOREDUCTASE” (MD BIOALPHA CO., LTD., priority 2006, published 2014).

The structures appear in SMILES notation.

One assay relates to NQO1. The assay can be described thus: NAD(P)H recycling assay (decrease of NAD(P)H by NQO1-activating candidate compounds). It is filed as biochemical. As to conditions: for Residual amount of NAD(P)H(%): relative amount of NAD(P)H, amount in the absence of the NQO1 activator taken to be 100; for decrease of NAD(P)H and consequent body weight reduction: summary of Table 1 in words. The method, then:
(10) NAD(P)H Recycling Assay
An NADH recycling assay was carried out using the above-extracted S9 supernatant or human recombinant NQO1 (hrNQO1). 20 μg of the S9 supernatant or 0.5 unit of hrNQO1 in conjunction with 200 μM NAD(P)H were added to a 25 mM Tris/HCl (pH 7.4) solution containing 0.2 mg/mL bovine serum albumin. The enzymatic reaction was initiated with addition of a […] compound and absorbance changes were monitored and recorded at 340 nm for 10 min.
(§1) For a variety of NQO1-activating candidate compounds as listed in Table 1 below, a decrease of NAD(P)H was measured based on the aforesaid experimental method (disclosed in Section 10 hereinbefore: NADH recycling assay). In addition, according to the experimental method given in Example 23, the body weight of ob/ob mice after four weeks was measured.
(§2) In this connection, the decreasing degree of NAD(P)H was expressed as a relative amount of NAD(P)H measured upon administration of the NQO1-activating candidate compound, by taking the amount of NAD(P)H in the absence of the NQO1 activator NAD(P)H to be 100. In addition, the degree of the body weight loss was expressed as a percentage of the body weight of ob/ob mice with administration of the NQO1-activating candidate compound, relative to the body weight of ob/ob mice without administration of the NQO1-activating candidate compound (control) after four weeks.

Assay [1] can be described thus: body weight and dietary intake of leptin receptor-deficient (ob/ob) mice. The class given is in vivo, mouse. As to conditions: for Weight reduction In ob/ob mice (4 wk): after four weeks, relative to ob/ob mice without administration (control), method of Example 23. The method, then: All experimental animal procedures were performed according to a guideline of Institutional Animal Care and Use Committee, Chungnam National University School of Medicine. OLETF rats were purchased from Otsuka Research Institute. Male ob/ob and C57BL/6 mice were purchased from Jackson Laboratory. Animals were housed in a breeding room maintained at a constant temperature of […] and a 12 h/12 h light/dark (L/D) cycle. 4-week-old C57BL/6 male mice were fed ad libitum high fat diet (HFD, 24% (w/w) and 45% calories as fat, Research Diets Inc., New Brunswick, N.J. 08901, US) for 7 weeks. Mouse groups were divided into an untreated group, a vehicle-treated group (calcium silicate), a pair-fed group and a candidate compound-treated group (calcium silicate-coated […] nanoparticles). Body weight and dietary intake of animals were daily measured. Upon completion of experiments, some mice of each group were anesthetized and received MRI examinations. The remaining mice of the groups were anatomized and tissue weight thereof was measured. Epidydimal fat, liver, soleus muscle and extensor digitorum longus (EDL) were prepared, and immunohistochemical, oil-red 0 and pH-sensitive ATPase staining were performed for analysis.
FIGS. 46 and 47 show changes in dietary intake/body weight and changes in body weight for 56 days, according to daily administration of pyrano-1,2-naphthoquinone into leptin receptor-deficient (ob/ob) mice at a dose of 200 mg/kg via an oral route.
This Example was intended to examine effects of varying in vivo NAD(P)^+/NAD(P)H ratio by arbitrary external supply of NAD(P)^+, a method capable of elevating the NAD(P)^+/NAD(P)H ratio in vivo. 100 mg/kg of NAD^+ was administered daily to leptin receptor-deficient (ob/ob) mice via an intraperitoneal (i.p.) route. A control mice group was given i.p. administration of physiological saline at the same dose. Changes in dietary intake/body weight (A) and changes in body weight (B) were measured for 30 days.
200 mg/kg of DMF was daily administered to leptin receptor-deficient (ob/ob) mice via an oral route. A control group received daily i.p. administration of physiological saline at the same dose. Changes in body weight (A) and changes in dietary intake (B) were measured for 30 days. It was confirmed that dietary intake of the treatment group was regulated to a 60 to 70% level of the control group.
as §1, §2

Another assay deals with AMPK. Description: AMPK phosphorylation in HEK293 cells (Western blot). It is filed as cell-based, human. As to conditions: HEK293 cells, AICAR 2 mM, 30 min. The method, then: Cells were lysed in SDS sample buffer (62.5 mM Tris HCl (pH 6.8), 6% (w/v) SDS, 30% glycerol, 125 mM DTT, and 0.03% (w/v) bromophenol blue). The total cell lysates were boiled at a temperature of 100° C. for 5 min and electrophoresed on a sodium dodecyl sulfate-polyacrylamide gel, and proteins were transferred on a nitrocellulose membrane. The membrane was reacted in TBS (5% (w/v) milk and 0.1% Tween 20) for 1 hour, and then reacted with primary antibodies for 2 hours. Next, the membrane was developed using HRP-conjugated secondary antibodies (Phototope-HRP Western Blot Detection Kit, New England Biolabs, Beverly, Mass.).
In order to investigate the importance of an NQO1 protein in phosphorylation of AMP kinase, HepG2, MCF-7 and HEK293 cells were seeded onto 60 mm plates at a density of 1×10^6 cells/plate. After growing the cells for 24 hours, the culture medium was replaced with a serum-free medium, and cells were treated with pyrano-1,2-naphthoquinone (10 μM) for 30 min, respectively, in combination with a control group (DMSO). Cells were lysed in RIPA buffer and amounts of all proteins were quantified using a spectrophotometer, and 50 μg of the protein was subjected to electrophoresis. AMP kinase phosphorylation was examined using Anti-AMPK and Anti-pT172-AMPK, whereas the NQO1 protein was assayed using Anti-NQO1. From the fact that AMP kinase phosphorylation by pyran-1,2-naphthoquinone (10 μM) was not observed in HEK293 cells, it can be seen that the NQO1 protein is crucial for phosphorylation of AMP kinase.
In order to examine that an activity of NQO1 is important for the phosphorylation of AMP kinase, HEK293 cells were seeded onto a 6-well plate at a density of 1×10^5 cells/well, cultured for 24 hours, and transfected with pSG5-HA-NQO1 (500 ng) and pSG5-HA-NOQ1-C609T (500 ng) plasmids. After 24 hours, the culture medium was replaced with a serum-free medium, and the cells were treated with pyrano-1,2-naphthoquinone (10 μM) and AICAR (2 mM) for 30 min, in combination with a control (DMSO). AMP kinase phosphorylation were assayed using Anti-AMPK and Anti-pT172-AMPK, whereas transfected NQO1 was assayed using Anti-HA.
In addition, AMPK phosphorylation/activation was not promoted in HEK293 cells, except for HEK293 cells transfected with wild type NQO1.
On the technique in general: In western blotting, separated proteins are transferred to a membrane and probed.

For `CC1C2=C(OC1(C)C)c1ccccc1C(=O)C2=O` (stereo not drawn) [2,2,3-Trimethyl-2,3-dihydro-naphtho[1,2-b]furan-4,5-dione], in the assay with NQO1, the “Residual amount of NAD(P)H(%)” value is 52.75 ± 1.88%; the “decrease of NAD(P)H and consequent body weight reduction” value is “significant decrease of NAD(P)H”. In addition, the “Weight reduction In ob/ob mice (4 wk)” value in assay [1] is reported as −27.9 ± 0.5%.
As for `CC1(C)CC2=C(O1)c1ccccc1C(=O)C2=O` [2,2-Dimethyl-2,3-dihydro-naphtho[1,2-b]furan-4,5-dione], in the assay with NQO1, the “Residual amount of NAD(P)H(%)” value stood at 45.9 ± 3.90%; the “decrease of NAD(P)H and consequent body weight reduction” value was “significant decrease of NAD(P)H”. Besides, the “Weight reduction In ob/ob mice (4 wk)” value in assay [1] is on record as −27.8 ± 8.1%.
Take `CC1(C)CCC2=C(O1)C(=O)c1ccccc1C2=O` [2,2-Dmethyl-3,4-dihydro-2H-benzo[g]chromene-5,10-dione]: the “Residual amount of NAD(P)H(%)” value in the assay on NQO1 worked out at 95 ± 4.5%. Moreover, the “Weight reduction In ob/ob mice (4 wk)” value in assay [1] is 1.3 ± 2.8%.
As for `CC1OC2=C(C(=O)C(=O)c3ccccc32)C1(C)C` (stereo not drawn) [2,3,3-Trimethyl-2,3-dihydro-naphtho[1,2-b]furan-4,5-dione], in the assay on NQO1, the “Residual amount of NAD(P)H(%)” value is reported as 64.39 ± 1.69%; the “decrease of NAD(P)H and consequent body weight reduction” value was “significant decrease of NAD(P)H”. Further, the “Weight reduction In ob/ob mice (4 wk)” value in assay [1] is −46.2 ± 11.1%.
For the compound `CC(C)=C/C(C)=C/C1(C)OC2=C(CC1C)C(=O)C(=O)c1ccccc12` (stereo not drawn) [2-(2,4-Dimethyl-penta-1,3-dienyl)-2,3-dimethyl-3,4-dihydro-2H-benzo[h]chromene-5,6-dione], in the assay on NQO1, the “Residual amount of NAD(P)H(%)” value is reported as 98.06 ± 5.14%. In addition, the “Weight reduction In ob/ob mice (4 wk)” value in assay [1] was −2.2 ± 0.07%.
For `CC1CC2=C(O1)c1ccccc1C(=O)C2=O` (stereo not drawn) [2-Methyl-2,3-dihydro-naphtho[1,2-b]furan-4,5-dione], in the assay on NQO1, the “Residual amount of NAD(P)H(%)” value is 49.73 ± 1.98%; the “decrease of NAD(P)H and consequent body weight reduction” value was “significant decrease of NAD(P)H”. The “Weight reduction In ob/ob mice (4 wk)” value in assay [1] is −39.5 ± 3.1%.
With `CC(C)=CC1(C)CCC2=C(O1)C(=O)c1ccccc1C2=O` (stereo not drawn) [2-Methyl-2-(2-methyl-propenyl)-3,4-dihydro-2H-benzo[g]Chromene-5,10-dione], the “Residual amount of NAD(P)H(%)” value in the assay with NQO1 worked out at 99.74 ± 2.69%. For the same compound, the “Weight reduction In ob/ob mice (4 wk)” value in assay [1] is reported as −0.7 ± 2.0%.
As for `CC(C)C1=CC2OC3=C(CC2(C)CC1)C(=O)c1ccccc1C3=O` (stereo not drawn) [3-Isoprophy-12a-methyl-2,4a,12,12a-tetradro-7H-benzo[b]xanthene-6,11-dione], the “Residual amount of NAD(P)H(%)” value in the assay with NQO1 was found to be 99.45 ± 3.56%. Moreover, the “Weight reduction In ob/ob mice (4 wk)” value in assay [1] was 0.3 ± 2.8%.
As for `CC(C)C1=CC2OC3=C(CC2(C)CC1)C(=O)C(=O)c1ccccc13` (stereo not drawn) [10-Isopropyl-7a-methyl-7a,8,9,11a-tetrahydro-7H-benzo[c]xanthene-5,6-dione], in the assay on NQO1, the “Residual amount of NAD(P)H(%)” value amounted to 77.55 ± 4.19%; the “decrease of NAD(P)H and consequent body weight reduction” value is reported as “significant decrease of NAD(P)H”. Also, the “Weight reduction In ob/ob mice (4 wk)” value in assay [1] is listed as −6.7 ± 2.1%.
Consider `NC(=O)c1ncn([C@@H]2O[C@H](CO)[C@@H](O)[C@H]2O)c1N` [AICAR, 5-aminoimidazole-4-carboxamide-1-beta-D-ribofuranoside, reference compound], for which the “phosphorylation of AMPK” value in the assay with AMPK is given as “increase in phosphorylation of AMPK”.
For `COC1=C(OC)C(=O)C(C/C=C(\C)CC/C=C(\C)CC/C=C(\C)CC/C=C(\C)CC/C=C(\C)CC/C=C(\C)CC/C=C(\C)CC/C=C(\C)CC/C=C(\C)CCC=C(C)C)=C(C)C1=O` [CoQ10, reference compound], in the assay on NQO1, the “Residual amount of NAD(P)H(%)” value came to 101.69 ± 1.32%. Moreover, in assay [1], the “Weight reduction In ob/ob mice (4 wk)” value is reported as 2.3 ± 3.5− %.
On to `CC1=CC(=O)c2ccccc2C1=O` [Menadione, 2-Methyl-1,4-naphthoquinone, reference compound], for which the “Residual amount of NAD(P)H(%)” value in the assay with NQO1 came to 85.65 ± 2.58%. The “Weight reduction In ob/ob mice (4 wk)” value in assay [1] is on record as −2.7 ± 2.0%.
Take `NC(=O)c1ccc[n+]([C@@H]2O[C@H](COP(=O)([O-])OP(=O)(O)OC[C@H]3O[C@@H](n4cnc5c(N)ncnc54)[C@H](O)[C@@H]3O)[C@@H](O)[C@H]2O)c1` [NAD^+]: in assay [1] (NAD+ 100 mg/kg daily i.p., 30 days), the body weight result is “continuous weight loss for 30 days”. Besides, in assay [1] (NAD+ 100 mg/kg daily i.p., at around 10 days), the dietary intake/body weight entry was “notably decreased”.
